Measured values published in publication PMC5520492, “Inhibition of DNA2 nuclease as a therapeutic strategy targeting replication stress in cancer cells” (Oncogenesis, 2017).

Tests used:
[1] = biological target: T1, yDna2 (Saccharomyces cerevisiae, UniProt P38859); experiment: High-throughput fluorescence nuclease assay with yDna2 (triply labeled (dT)30 ssDNA); type: biochemical, yeast; settings: yeast Dna2 0.09 nM; substrate 0.1 μM; Figure 3c; read-out: IC50 (yeast Dna2), dose-response in vitro
T1 construct: made in house
T1 sequence (P38859 whole entry): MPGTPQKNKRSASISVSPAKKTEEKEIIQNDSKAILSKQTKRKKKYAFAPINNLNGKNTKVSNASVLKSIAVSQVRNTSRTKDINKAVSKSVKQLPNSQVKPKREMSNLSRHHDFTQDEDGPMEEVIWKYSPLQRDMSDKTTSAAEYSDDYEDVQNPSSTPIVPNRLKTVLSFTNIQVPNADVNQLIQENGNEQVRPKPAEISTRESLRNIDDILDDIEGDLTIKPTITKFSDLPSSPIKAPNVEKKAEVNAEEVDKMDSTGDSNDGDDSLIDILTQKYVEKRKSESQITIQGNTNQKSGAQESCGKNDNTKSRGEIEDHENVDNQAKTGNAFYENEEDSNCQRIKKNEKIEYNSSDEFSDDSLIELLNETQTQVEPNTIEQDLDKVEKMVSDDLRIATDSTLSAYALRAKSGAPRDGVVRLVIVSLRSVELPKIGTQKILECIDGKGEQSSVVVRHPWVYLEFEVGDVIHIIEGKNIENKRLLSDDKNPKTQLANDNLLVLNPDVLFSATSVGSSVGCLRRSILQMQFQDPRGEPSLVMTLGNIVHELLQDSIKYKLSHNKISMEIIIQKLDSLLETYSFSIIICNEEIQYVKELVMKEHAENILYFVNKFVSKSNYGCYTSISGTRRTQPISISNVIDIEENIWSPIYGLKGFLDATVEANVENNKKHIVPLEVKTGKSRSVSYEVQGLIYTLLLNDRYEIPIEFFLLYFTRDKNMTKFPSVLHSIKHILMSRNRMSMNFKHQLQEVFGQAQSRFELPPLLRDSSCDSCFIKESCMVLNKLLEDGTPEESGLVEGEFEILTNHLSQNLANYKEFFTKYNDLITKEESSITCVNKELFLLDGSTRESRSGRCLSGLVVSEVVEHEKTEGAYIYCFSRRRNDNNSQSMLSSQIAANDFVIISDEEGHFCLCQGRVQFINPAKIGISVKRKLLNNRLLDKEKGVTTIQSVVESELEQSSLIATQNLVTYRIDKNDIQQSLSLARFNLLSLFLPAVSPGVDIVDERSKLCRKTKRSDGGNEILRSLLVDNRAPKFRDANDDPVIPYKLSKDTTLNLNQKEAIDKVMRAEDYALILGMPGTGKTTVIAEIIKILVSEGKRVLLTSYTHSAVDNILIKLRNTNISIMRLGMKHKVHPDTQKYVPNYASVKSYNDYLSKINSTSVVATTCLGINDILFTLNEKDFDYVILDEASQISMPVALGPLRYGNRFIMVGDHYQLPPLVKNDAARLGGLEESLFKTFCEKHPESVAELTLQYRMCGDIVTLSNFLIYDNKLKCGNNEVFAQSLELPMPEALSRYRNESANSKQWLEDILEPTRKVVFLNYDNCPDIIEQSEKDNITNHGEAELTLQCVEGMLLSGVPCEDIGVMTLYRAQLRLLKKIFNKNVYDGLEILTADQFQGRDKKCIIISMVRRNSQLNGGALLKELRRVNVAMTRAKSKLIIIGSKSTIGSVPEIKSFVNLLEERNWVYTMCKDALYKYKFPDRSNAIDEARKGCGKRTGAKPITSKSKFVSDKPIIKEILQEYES
Experimental: The screen entailed the use of oligonucleotide (dT)30 having a reporter fluorescent moiety, 6-FAM on the 5′ end, and the dark quenching group, Iowa Black FQ, on the 3′ end. In addition, a second dark quencher ZEN was placed between the 9th and 10th base (Figure 2a). The fluorescence emitted by 6-FAM is quenched by FRET, but it increases when DNA is degraded by Dna2. […] The inhibitory activity of the compounds was determined as a reduction in fluorescent signal compared with the dimethylsulfoxide (DMSO) only control. […] We screened ~50 000 chemical compounds from six different libraries (Supplementary Table S1) to identify chemical inhibitors of the Dna2 nuclease activity. […] The DNA2 nuclease domain is well conserved among eukaryotes, and therefore we reasoned that inhibitors of yDna2 will likely also work with the human counterpart.
Initial screen, it was performed with yDna2.[22] Then, the top candidate compounds were tested on hDNA2. Identical reaction conditions were used for assaying the nuclease activity of yDna2 and hDNA2. […] The reaction buffer was 20 mM HEPES/NaOH, pH 7.5, 60 mM KCl, 1 mM DTT, 100 μg/ml bovine serum albumin and 0.05% Triton X-100. The nuclease assay was initiated by adding MgCl2 (3 mM final concentration). T5 nuclease was assayed in the buffer (50 mM potassium acetate, pH 7.9, 20 mM Tris-acetate, 10 mM magnesium acetate and 1 mM DTT) provided by the vendor (NEB, Ipswich, MA, USA). The concentration of the fluorogenic substrate was 0.1 μM. The optimal amount of yDna2, hDNA2 and T5 nuclease was determined by utilizing the Kaleidagraph software (Reading, PA, USA) to fit the data according to Michaelis Menton Kinetics (V=V0+Vmax*x/(Km+x)). […] The Z’ value was calculated as previously described.[50] Cell proliferation was determined using 4,6-diamidino-2-phenylindole staining followed by high-throughput microscopy in a 384-well plate setup. In brief, cells were fixed with formaldehyde, washed and stained with 4,6-diamidino-2-phenylindole and the number of nuclei in each well counted by automated microscopy. The data were analyzed as described.[51]

[2] = biological target: T2, hDNA2 (Homo sapiens, UniProt P51530); experiment: Fluorescence nuclease assay with hDNA2 (triply labeled ssDNA); type: biochemical; settings: human DNA2 10 nM; substrate 0.1 μM; Figure 3c; read-out: IC50 (human DNA2), dose-response in vitro
T2 construct: made in house
T2 sequence (P51530 1-1060): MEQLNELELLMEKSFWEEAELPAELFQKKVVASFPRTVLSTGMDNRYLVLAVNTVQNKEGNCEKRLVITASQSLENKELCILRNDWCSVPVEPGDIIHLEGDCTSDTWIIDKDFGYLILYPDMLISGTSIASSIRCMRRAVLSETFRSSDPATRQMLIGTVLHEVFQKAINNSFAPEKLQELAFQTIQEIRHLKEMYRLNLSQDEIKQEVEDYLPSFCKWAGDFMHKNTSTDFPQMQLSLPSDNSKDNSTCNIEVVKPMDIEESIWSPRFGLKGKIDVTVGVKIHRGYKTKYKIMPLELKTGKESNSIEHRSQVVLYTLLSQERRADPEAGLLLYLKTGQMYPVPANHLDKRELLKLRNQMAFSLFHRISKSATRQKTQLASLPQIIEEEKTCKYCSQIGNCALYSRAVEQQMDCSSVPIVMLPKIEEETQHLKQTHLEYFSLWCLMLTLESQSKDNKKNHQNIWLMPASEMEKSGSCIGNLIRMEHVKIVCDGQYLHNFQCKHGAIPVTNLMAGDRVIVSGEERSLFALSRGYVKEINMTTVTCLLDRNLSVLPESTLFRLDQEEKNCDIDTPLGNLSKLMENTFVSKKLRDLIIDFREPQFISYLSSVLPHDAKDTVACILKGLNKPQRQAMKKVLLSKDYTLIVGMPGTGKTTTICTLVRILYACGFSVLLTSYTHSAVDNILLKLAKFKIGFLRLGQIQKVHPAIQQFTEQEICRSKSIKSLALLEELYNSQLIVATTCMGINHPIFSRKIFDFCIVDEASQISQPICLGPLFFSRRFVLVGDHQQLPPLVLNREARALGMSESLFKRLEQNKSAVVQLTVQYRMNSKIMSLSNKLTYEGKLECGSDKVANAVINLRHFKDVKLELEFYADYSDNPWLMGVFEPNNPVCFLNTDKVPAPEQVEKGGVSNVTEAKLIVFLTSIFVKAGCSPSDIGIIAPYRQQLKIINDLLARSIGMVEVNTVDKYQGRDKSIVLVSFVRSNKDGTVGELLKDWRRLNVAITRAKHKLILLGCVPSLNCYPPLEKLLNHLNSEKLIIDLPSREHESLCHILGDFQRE
Experimental: Figure 3 Validation of the top two inhibitors identified from the high-throughput screen. […] (b, c) Dose-response curves for indicated compounds, cell based (U2OS cell line) (b) and in vitro (c). The IC50 value and the protein concentration used are indicated. Triple labeled substrate (0.1 μM) as in Figure 2a was used. The concentration range of inhibitors was 0.003–666.67 μM. […] The asterisks denote the radiolabel. Plotted are the average data from three independent experiments and the error bars represent 1 s.d. […]
In addition, a second dark quencher ZEN (N,N-diethyl-4-(4-nitronaphthalen-1-ylazo)-phenylamine, absorption max.=532 nm) is placed between 9th and 10th base (Figure 2a). […] The optimal amount of yDna2, hDNA2 and T5 nuclease was determined by utilizing the Kaleidagraph software (Reading, PA, USA) to fit the data according to Michaelis Menton Kinetics (V=V0+Vmax*x/(Km+x)). […] The Z’ value was calculated as previously described.[50] Cell proliferation was determined using 4,6-diamidino-2-phenylindole staining followed by high-throughput microscopy in a 384-well plate setup. In brief, cells were fixed with formaldehyde, washed and stained with 4,6-diamidino-2-phenylindole and the number of nuclei in each well counted by automated microscopy. The data were analyzed as described.[51]

Q: How did the IC50 [1] turn out when `O=C1C(=O)c2cc([N+](=O)[O-])ccc2-c2ccccc21` [NSC-5195242, 2-nitrophenanthrene-9,10-dione] was run?
A: 3900 nM

Q: And the IC50 [2]?
A: 3100 nM

Q: With `NC1=C(Br)C(=O)c2ncccc2C1=O` [NSC-105808, 6-amino-7-bromoquinoline-5,8-dione] as the molecule, how does the IC50 [1] read?
A: 2000 nM

Q: What about the IC50 [2] of the same molecule?
A: 1490 nM
